Here are results for three compounds from patent publication US20070142317A1, “Topical composition for treatment of skin disorders” (QLT USA, Inc., priority 2003, published 2007).

Where two headings read alike, the source gives them in different places.

One series relates to U937 monocytoid cells. In words: TUNEL assay, dAd, adenosine and adenine dose ranging (Example 24). As to conditions: for % FITC Shift / % PI Shift: 2 days, no dCF. The class given is cell-based. On the procedure: U937 monocytoid cells were cultured in the presence of dAd at various concentrations of dAd (0, 50, 75, 100, 250 and 1000 micromoles/liter). The cells were incubated in dAd for 2 days. At the end of the treatment period, the cells were harvested for analysis by a TUNEL assay, a flow-cytometry-based method to quantify the percentage of cells that have undergone apoptosis. The level of apoptosis expressed as “% FITC shift”. The level of cell cycle arrest is expressed as “% PI shift”. As a positive control, the cells were exposed to 5 mM camptothecin for 2 days.

For series [1] the following is noted: for systemic exposure per day: topical 1.0% (10 mg/g), 7% systemic absorption.
Description: (§1) Systemic absorption is a concern, because of the potential for serious adverse events, such as lymphopenia and renal toxicity. At oncology doses, these adverse reactions are usually minimized, but the therapeutic index is narrow. Another factor that plays a role in the safety of the formulation is the amount of product administered each day. Approximately 4 grams, 12 grams, and 40 grams of a topical formulation are estimated to cover 10%, 30%, and 100% of the body surface area.
as §1
as §1, with “Calculations of safety margins have been performed, based upon this assumption and the known toxicity profile of F-Ara-A when administered IV for oncology indications. Systemic” for “Systemic”
as §1

The subject of a further series is U-937 cells. In words: Cytokine secretion by ELISA (Example 31). The class given is cell-based. As to conditions: drug 1 μM; for Cytokine Secretion IL-6 pg/ml Mean of 3 Replicates: LPS-activated cells. Here is the method:
In a search for a topical agent that can locally deplete levels of T-cells in the skin, apoptotic compounds were evaluated for their mechanisms of action. The ability that […] induce apoptosis by the same mechanisms was examined by cytokine secretion. […] Caspase-3 and cytokine (IL-2, IL-6, TNF, and IFN-γ) levels were determined and compared to controls at 23 and 46 hours. FdA was incorporated to evaluate the effect of the halogen group and Ara-C for its overlapping mechanisms of action. […] At the end of the treatment period, the cells were harvested and Caspase-3 induction was determined using a flow-cytometry-based method to quantify the percentage of cells that induced Caspase-3. The level of apoptosis is expressed as “% FITC shift”. Cytokine secretion (IL-2, IL-6, TNF, and IFN-γ) was measured at the same time by ELISA and is expressed in pg/mL. […]
For orientation: In an ELISA, binding on a coated surface is turned into a signal by an enzyme label.

Consider `Nc1[nH]cnc2ncnc1-2` [Adenine, 1H-Purin-6-amine], for which the “effect on apoptosis or cell cycle” value is listed as “slight hint of an effect” in the series on U937 monocytoid cells (at 1000 uM) and “little or no effect” with U937 monocytoid cells (up to 250 uM). In addition, the “% FITC Shift” value worked out at 0.4% in the series with U937 monocytoid cells (drug 50 uM); 0.6% with U937 monocytoid cells (drug 75 uM); 0.3% with U937 monocytoid cells (drug 100 uM); 0.7% in the series with U937 monocytoid cells (drug 250 uM); 2.9% with U937 monocytoid cells (drug 1000 uM). The “% PI Shift” value with U937 monocytoid cells (drug 50 uM) was 2.0%; with U937 monocytoid cells (drug 75 uM) it was 2.4%; in the series on U937 monocytoid cells (drug 100 uM), 2.5%; in the series on U937 monocytoid cells (drug 250 uM), 3.4%; in the series with U937 monocytoid cells (drug 1000 uM) it was 9.5%.

In the case of `Nc1ncnc2c1ncn2[C@@H]1O[C@H](CO)[C@@H](O)[C@H]1O` [Adenosine, 9-β-D-Ribofuranosyl-9H-purin-6-amine], the “effect on apoptosis or cell cycle” value was “slight hint of an effect” in the series on U937 monocytoid cells (at 1000 uM) and “little or no effect” in the series on U937 monocytoid cells (up to 250 uM). The “% FITC Shift” value is given as 0.7% in the series on U937 monocytoid cells (drug 50 uM); 0.6% in the series on U937 monocytoid cells (drug 75 uM); 0.6% in the series on U937 monocytoid cells (drug 100 uM); 0.6% with U937 monocytoid cells (drug 250 uM); 2.9% in the series on U937 monocytoid cells (drug 1000 uM). The “% PI Shift” value came out at 1.7% in the series with U937 monocytoid cells (drug 50 uM); 2.1% in the series with U937 monocytoid cells (drug 75 uM); 2.0% in the series with U937 monocytoid cells (drug 100 uM); 1.9% with U937 monocytoid cells (drug 250 uM); 7.9% in the series with U937 monocytoid cells (drug 1000 uM).

`Nc1ccn([C@@H]2O[C@H](CO)[C@@H](O)[C@@H]2O)c(=O)n1` [ara-C, Cytosine 1β-D-Arabinofuranoside]: in series [1], the “times safer than the oncology dose” value was 9643. In addition, the “systemic exposure per day” value came to 2.8 mg in series [1] (10% BSA (4 grams)), 8.4 mg in series [1] (30% BSA (12 grams)) and 28 mg in series [1] (100% BSA (40 grams)). The “Cytokine Secretion IL-6 pg/ml Mean of 3 Replicates” value with U-937 cells (23 hr) and in the series on U-937 cells (46 hr) was 7 pg/mL in each case. Besides, in the series on U-937 cells (46 hours), the “effect on suppressing the production of IL-6” value is listed as “little effect”.
